Entries after “also recorded” stand apart in the source; their conditions may differ. Where no end group is shown, it is not given here.
Tests used:
senescent A375 cells = test: Peptide efficacy in culture (MTS), senescent cells; assay type: cell-based, human
Method: Cell lines were treated with chemotherapy, doxorubicin (Sigma, Cat. No. 2252) to induce senescence (200 nM for HCT116, 100 nM for B16-F10 and MCF7, 50 nM for SW480 and DLD-1, 40 nM for A375-Luc/iRFP and MCF10a). MCF7 cells were treated with CDK4/6 inhibitor, palbociclib (Selleck Chemicals: S1116) to induce senescence (5 µM). A375 cells were treated with Braf inhibitor, Dabrafenib (Selleck Chemicals: S2807), to induce senescence (10 µM). Peptide efficacy experiments were performed by seeding 10,000 – 20,000 cells in a 96-well plate. The cells were given doxorubicin twice to make the cells senescent. After removal of doxorubicin, the plate was treated with varying concentrations of peptide. The peptide was replenished daily for two days. Cellular proliferation was quantified using the Promega CellTiter 96™ AQueous One Solution Cell Proliferation Assay (MTS) after 2 hours according to the manufacturer's protocol (Promega, G3581). To control for the charge of ES2, ProteoJuice (Millipore Sigma, 71281) was used to deliver ES2 using the manufacturers protocol, except 50 µL of 2 mM ES2 was mixed with 25 µL of ProteoJuice. Varying concentrations of the mixture were administered to A375 cells along with a control of only ProteoJuice.

FOXO4 foci = test: Immunofluorescence / quantitative imaging of FOXO4 foci; assay type: cell-based, human
Method: For all immunofluorescence experiments, cells were plated in 96-well plates (Cellvis P96-1.5P). At the end of each experiment, cells were washed once with PBS and then fixed with 4% paraformaldehyde for 10 minutes at room temperature. For experiments with caspase-3/7 staining, the Caspase-3/7 reagent (Thermo Scientific Cat# C10723) was added to live cells for 30 minutes prior to fixation. Fixed cells were washed with PBS and then permeabilized with ice-cold methanol at 4°C for 10 minutes. Cells were washed with PBS and then blocked for 30 minutes with 1% Bovine Serum Albumin (BSA) in PBS. […]
Quantitative imaging was performed as described with the following exceptions. […] Quantification of fluorescence intensities was performed using CellProfiler. Briefly, the DAPI staining was used to create a nuclear mask, and fluorescence intensities of the stained markers (FOXO4, CDKN2A, CDKN1A, and TP53) and FOXO4 foci were measured within the nuclear mask. DAPI fluorescence intensity was also quantified and used for DNA content measurements. […]

GFP = GFP (Aequorea victoria, UniProt P42212); test: Bio-layer Interferometry, GFP; assay type: binding; conditions: BLI
Method: Bio-layer Interferometry (BLI) measurements were performed on a ForteBio Octet RED384 instrument (Molecular Devices) using ForteBio Data Acquisition software 9.0 and ForteBio biosensors (Molecular Devices) according to the manufacturer's instructions. Kinetic assays were carried out at 30°C using settings of Standard Kinetics Acquisition rate (5.0 Hz, averaging by 20) at a sample plate shake speed of 1,000 rpm. Streptavidin sensors (SA) (ForteBio) equilibrated in PBS were mock loaded (no ligand reference sensor) or loaded with 50 nM of N- terminal biotinylated ES2 peptide (New England Peptide, Inc.) with an approximate response of 1 nm. Ligand loaded SA sensors equilibrated in Kinetics buffer (ForteBio) to establish a baseline, were dipped into wells containing 2-fold dilutions of TP53 (Millipore Sigma Aldrich; Cat# 23-034), FOXO4 (OriGene Technologies; Cat# TP760655) or GFP analytes in kinetics buffer, or buffer alone (reference sample). […] Binding curves were analysed using ForteBio Data Analysis HT 10.0 evaluation software. […] Equilibrium dissociation constants KD which defines the strength of the interaction or affinity was calculated as the kinetic dissociation rate constant divided by the kinetic association rate constant.

dividing A375 cells = test: Orthotopic xenograft of dividing luciferase A375 cells, radiance; assay type: in vivo, mouse; conditions: dividing A375 cells injected orthotopically, locally injected twice, imaged one day later; ES2 n=5, saline n=9

Sequence: PRKGGRRRRAWGRRRRRRRRRRRRRRAPRKRLTLA [ES2]
- cell death (senescent A375 cells; A375 cells, ProteoJuice control experiment, highest concentration): 80%
- effect of delivery with ProteoJuice on senolytic activity (senescent A375 cells; ES2 delivered with ProteoJuice vs ES2 alone, senescent A375 cells, n=5): had no effect on viability in senescent cells compared to ES2 alone; also recorded: no difference in senolytic activity
- IC50 (senescent A375 cells; doxorubicin (40 nM)-induced senescent A375 cells, peptide replenished daily for two days, MTS, best fit polynomial, read-out: IC50^sen, concentration to kill 50% of senescent cells): ~7 µM
- senolytic activity (in words) (senescent A375 cells; senescent vs dividing A375 cells): highest senolytic activity
- concentration at which accumulation, co-localization with FOXO4 and disruption of focus formation observed (FOXO4 foci; BODIPY-labelled ES2, A375 cells, 2 h): ≥ 8 µM
- FOXO4 foci after ES2 addition (FOXO4 foci; senescent A375 cells, ES2 8 µM for 4 h): caused a loss of FOXO4 foci
- Kd (GFP; biotinylated ES2 on streptavidin sensors, 30°C, NB – no binding): > 0.2 µM
- binding of GFP (in words) (GFP; six 2-fold dilutions of GFP starting at 200nM): minimal binding of GFP; also recorded: no binding was detected
- elimination of dividing cancer cells in vivo (radiance) (dividing A375 cells): no difference in gain of radiance; also recorded: ineffective at eliminating dividing cancer cells

Source: publication PMC8546421, “Molecular modelling of the FOXO4-TP53 interaction to design senolytic peptides for the elimination of senescent cancer cells” (EBioMedicine, 2021)
